Reference: PubChem BioAssay (NCI)
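Assay format: 96-well plates, 48-hour exposure. GI50 = concentration required for 50% inhibition of growth. Definition used: TGI = concentration required for complete inhibition of growth.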

Columns and labels:
Assay in all cases: NCI-60 cell line screen, 48 h
786-0 renal = system: 786-0 renal
A498 renal = system: A498 renal
A549 NSCLC = system: A549 NSCLC
ACHN renal = system: ACHN renal
BT-549 breast = system: BT-549 breast
CAKI-1 renal = system: CAKI-1 renal
CCRF-CEM leukemia = system: CCRF-CEM leukemia
COLO 205 colon = system: COLO 205 colon
DU-145 prostate = system: DU-145 prostate
HCC-2998 colon = system: HCC-2998 colon
HCT-116 colon = system: HCT-116 colon
HCT-15 colon = system: HCT-15 colon
HL-60(TB) leukemia = system: HL-60(TB) leukemia
HOP-62 NSCLC = system: HOP-62 NSCLC
HOP-92 NSCLC = system: HOP-92 NSCLC
HS 578T breast = system: HS 578T breast
HT29 colon = system: HT29 colon
IGROV1 ovarian = system: IGROV1 ovarian
K-562 leukemia = system: K-562 leukemia
KM12 colon = system: KM12 colon
LOX IMVI melanoma = system: LOX IMVI melanoma
M14 melanoma = system: M14 melanoma
MALME-3M melanoma = system: MALME-3M melanoma
MCF7 breast = system: MCF7 breast
MDA-MB-231 breast = system: MDA-MB-231 breast
MDA-MB-435 = system: MDA-MB-435
MOLT-4 leukemia = system: MOLT-4 leukemia
NCI-H226 lung = system: NCI-H226 lung
NCI-H23 lung = system: NCI-H23 lung
NCI-H460 lung = system: NCI-H460 lung
NCI-H522 lung = system: NCI-H522 lung
NCI/ADR-RES ovarian = system: NCI/ADR-RES ovarian
OVCAR-3 ovarian = system: OVCAR-3 ovarian
OVCAR-4 ovarian = system: OVCAR-4 ovarian
OVCAR-5 ovarian = system: OVCAR-5 ovarian
OVCAR-8 ovarian = system: OVCAR-8 ovarian
PC-3 prostate = system: PC-3 prostate
RPMI-8226 leukemia = system: RPMI-8226 leukemia
RXF 393 renal = system: RXF 393 renal
SF-268 CNS = system: SF-268 CNS
SF-295 CNS = system: SF-295 CNS
SF-539 CNS = system: SF-539 CNS
SK-MEL-28 melanoma = system: SK-MEL-28 melanoma
SK-MEL-5 melanoma = system: SK-MEL-5 melanoma
SK-OV-3 ovarian = system: SK-OV-3 ovarian
SN12C renal = system: SN12C renal
SNB-19 CNS = system: SNB-19 CNS
SNB-75 CNS = system: SNB-75 CNS
SR leukemia = system: SR leukemia
SW-620 colon = system: SW-620 colon
T-47D breast = system: T-47D breast
TK-10 renal = system: TK-10 renal
U251 CNS = system: U251 CNS
UACC-257 melanoma = system: UACC-257 melanoma
UACC-62 melanoma = system: UACC-62 melanoma
UO-31 renal = system: UO-31 renal

## CCCCCCC(O)(c1ccc(F)cc1)C(CN1CCOCC1)c1ccccc1 (configuration not stated)
786-0 renal
  GI50: 13.2 µM
  TGI: 27.3 µM
A498 renal
  GI50: 11.6 µM
  TGI: 30 µM
A549 NSCLC
  GI50: 11.7 µM
  TGI: 29.3 µM
ACHN renal
  GI50: 12.3 µM
  TGI: 24.9 µM
BT-549 breast
  GI50: 14.7 µM
  TGI: 29.6 µM
CAKI-1 renal
  GI50: 12.5 µM
  TGI: 28.9 µM
CCRF-CEM leukemia
  GI50: 13.9 µM
  TGI: 32.9 µM
COLO 205 colon
  GI50: 12.1 µM
  TGI: 27 µM
DU-145 prostate
  GI50: 14.6 µM
  TGI: 28.7 µM
HCC-2998 colon
  GI50: 13.8 µM
  TGI: 29.3 µM
HCT-116 colon
  GI50: 8.53 µM
  TGI: 24.6 µM
HCT-15 colon
  GI50: 11.5 µM
  TGI: 24.7 µM
HL-60(TB) leukemia
  GI50: 12 µM
  TGI: 31.6 µM
HOP-62 NSCLC
  GI50: 19.2 µM
  TGI: 35.3 µM
HOP-92 NSCLC
  GI50: 12.8 µM
  TGI: 26.1 µM
HS 578T breast
  GI50: 14.8 µM
  TGI: 40 µM
HT29 colon
  GI50: 5.37 µM
  TGI: 19.9 µM
IGROV1 ovarian
  GI50: 12.8 µM
  TGI: 41.9 µM
K-562 leukemia
  GI50: 14.9 µM
  TGI: 37.7 µM
KM12 colon
  GI50: 12.4 µM
  TGI: 28.4 µM
LOX IMVI melanoma
  GI50: 16.2 µM
  TGI: 31.1 µM
M14 melanoma
  GI50: 16.3 µM
  TGI: 34.4 µM
MALME-3M melanoma
  GI50: 15 µM
  TGI: 33.4 µM
MCF7 breast
  GI50: 11.7 µM
  TGI: 24.4 µM
MDA-MB-231 breast
  GI50: 11.4 µM
  TGI: 26.5 µM
MDA-MB-435
  GI50: 15.8 µM
  TGI: 41.7 µM
MOLT-4 leukemia
  GI50: 13.3 µM
  TGI: 32.4 µM
NCI-H226 lung
  GI50: 8.63 µM
  TGI: 24.8 µM
NCI-H23 lung
  GI50: 11.1 µM
  TGI: 30.6 µM
NCI-H460 lung
  GI50: 13.4 µM
  TGI: 29.3 µM
NCI-H522 lung
  GI50: 8.14 µM
  TGI: 22.3 µM
NCI/ADR-RES ovarian
  GI50: 12.1 µM
  TGI: 34.2 µM
OVCAR-3 ovarian
  GI50: 12.5 µM
  TGI: 25.4 µM
OVCAR-4 ovarian
  GI50: 14.2 µM
  TGI: 29.8 µM
OVCAR-5 ovarian
  GI50: 13.8 µM
  TGI: 26.8 µM
OVCAR-8 ovarian
  GI50: 14.2 µM
  TGI: 34.8 µM
PC-3 prostate
  GI50: 5.24 µM
  TGI: 21.3 µM
RPMI-8226 leukemia
  GI50: 5.48 µM
  TGI: 21.7 µM
RXF 393 renal
  GI50: 5.26 µM
  TGI: 19 µM
SF-268 CNS
  GI50: 13 µM
  TGI: 28.4 µM
SF-295 CNS
  GI50: 15.3 µM
  TGI: 31.5 µM
SF-539 CNS
  GI50: 15.6 µM
  TGI: 29.6 µM
SK-MEL-28 melanoma
  GI50: 16.4 µM
  TGI: 34.5 µM
SK-MEL-5 melanoma
  GI50: 4.64 µM
  TGI: 18.6 µM
SK-OV-3 ovarian
  GI50: 16 µM
  TGI: 36.7 µM
SN12C renal
  GI50: 12.7 µM
  TGI: 28.3 µM
SNB-19 CNS
  GI50: 12.8 µM
  TGI: 27.5 µM
SNB-75 CNS
  GI50: 14.4 µM
  TGI: 35.9 µM
SR leukemia
  GI50: 11.9 µM
  TGI: 29.8 µM
SW-620 colon
  GI50: 12.2 µM
  TGI: 26.3 µM
T-47D breast
  GI50: 10.4 µM
  TGI: 23.8 µM
TK-10 renal
  GI50: 18 µM
  TGI: 32.8 µM
U251 CNS
  GI50: 12.2 µM
  TGI: 25.1 µM
UACC-257 melanoma
  GI50: 10.3 µM
  TGI: 27.3 µM
UACC-62 melanoma
  GI50: 11.4 µM
  TGI: 27.7 µM
UO-31 renal
  GI50: 11.6 µM
  TGI: 26.4 µM
